Test results published in US11364211B2, “Methods for selecting phosphatase selective and non-selective phosphatase inhibitors” (MEDICAL RESEARCH COUNCIL, priority 2015, dated 2022).
Entries after “also recorded” stand apart in the source; their conditions may differ.

What was measured:
eIF2α phosphorylation = eIF2α phosphorylation during stress-recovery after DTT wash out; format: cell-based; conditions: 30 minute 1 mM DTT and wash out
Experimental: The inventors reasoned that a PPP1R15B inhibitor should prolong eIF2α phosphorylation following stress. To reveal this activity, it was crucial to search for conditions where PPP1R15A is not expressed, to avoid confounding effects. The inventors took advantage of the fast kinetic and reversibility of stress induction by DTT (Bertolotti et al., Nat. Cell. Biol., 2, 326-332, 2000; Jousse et al., 2003) and monitored eIF2α phosphorylation in cells following a 30 minute treatment with 1 mM DTT and a wash out. […] Thus, careful monitoring of the kinetic of eIF2α dephosphorylation in the early phase of a stress-recovery paradigm such as the one described here can be used to identify other PPP1R15B inhibitors.

HeLa cells = test: Cytoprotection from tunicamycin ER stress (WST-8 cell viability); format: cell-based, human; conditions: Tunicamycin 2.5 ug/ml, 0.2-5 μM compound
Experimental: Cells were plated in 24-well plates at a density of 15,000 (HeLa) or 12,000 cells/ml (MEFs) 24 hours prior to treatment. ER stress was elicited by addition of fresh media containing 2.5 μg/ml tunicamycin (Sigma-Aldrich). Compounds of Example 1 were dissolved in DMSO and added as indicated. DMSO was used as a mock treatment. Cell viability was assessed by measuring the reduction of WST-8 [2-(2-methoxy-4-nitrophenyl)-3-(4-nitrophenyl)-5-(2,4-disulfophenyl)-2H-tetrazolium] into formazan using Cell viability Counting Kit-8 (Dojindo) according to the supplier's recommendation, 48 hours after tunicamycin treatment.
Cells where stressed with Tunicamycin (2.5 ug/ml) in the presence of 0.2-5 μM of a compound of Example 1. Cell viability was measured 3 days after treatment.
Cytoprotection against ER stress can be measured by a suitable assay. In this instance, cytoprotection was measured in HeLa cells in which ER stress was elicited by the addition of media containing tunicamycin, a drug that blocks N-glycosylation, thereby preventing protein folding and inducing the unfolded protein response. Cell viability was then detected in the presence and absence of a compound of Example 1 after a set period of time, by measuring the reduction of WST-8 into formazan using the standard cell viability kit Cell Viability Counting Kit-8 from Dojindo. […]

[1] = tested on: dorsal root ganglia culture (DRG) from PMP22 mutant mice; test: Myelination in DRG cultures from PMP22 mutant mice; format: cell-based, mouse; conditions: 5 nM compound, 14 days
Experimental: Dorsal root ganglia (DRG) dissected from wild-type or Pmp22Tr-J (PMP22mutant) (Henry et al., Neuropathol. Exp. Neurol., 42, 688-706, 1983) embryo at 13.5 or […] (E13.5) were cultured on collagen coated coverslips in neurobasal media supplemented with 4 g/l glucose, 2 mM L-glutamine, 2% B27 supplement and 50 ng/ml neuronal growth factor (NGF) for 7 days. To differentiate Schwann cells and induce myelination, the cultured DRGs were then maintained in C-media (MEM media supplemented with 4 g/l glucose, 2 mM L-glutamine, 10% FCS, 50 ng/ml NGF). The C-media was replaced every other day with freshly added 50 μg/ml ascorbic acid ±5 nM of compound of Example I and cultured for 14 days for myelination by the Schwann cells. The cultured DRGs were then fixed in 4% paraformaldehyde and immunostained with MBP (Rat Myelin basic protein, 1/250 dilution, ab73498).

PPP1R15A [2] = test: Induction of PPP1R15A in mouse brain (qPCR); format: in vivo; conditions: mice, indicated doses
Experimental: RNA from brain was extracted in trizol (Life Technologies). RNA concentration was measured using a NANODROP1000 spectrophotometer (Thermo Fisher Scientific), and 1 μg was reverse transcribed to cDNA using a SuperScript reverse transcriptase (Life Technologies). Quantitative PCR with primers GAPDH (f): […], GAPDH (r): […], PPP1R15A (f): […];
and PPP1R15A (r): […] was performed using SYBR® Select Master Mix (Ref 4472908, applied biosystems) on a Corbett Rotor-Gene version 6000. Expression of each gene was normalized to the housekeeping gene GAPDH and expressed as fold change calculated using Paffl equation.
PPP1R15A induction was assessed by qPCR on total mRNA extracted from brains of mice treated with the indicated doses of compound of Example 1.

ATF4 = test: Induction of ATF4 expression in cells (immunoblot); format: cell-based, human; conditions: HeLa cells, 10 μM
Experimental: (§1) Cells (90,000 cells/ml) were plated in a 24-well plate and treated as indicated. At the end of treatment cells were lysed in 150 μl Laemmli Buffer. Lysates were boiled at 95° C. for 5 minutes, sonicated and resolved on 4-12% Bolt Bis-Tris Plus Gels (Thermo Fisher Scientific). Proteins were transferred to the nitrocellulose membrane using the iBlot 2 system (Thermo Fisher Scientific) and analysed using the following antibodies: e-IF2α-P (44-728G, Thermo Fisher Scientific, 1:1000), e-IF2α (ab5369, Abcam, 1:1000), tubulin (T5168, Sigma-Aldrich, 1:4000), BiP (610978, BD Biosciences Pharmingen, 1:1000), ATF4 (sc-200, Santa Cruz Biotechnology, 1:500), Ppp1r15a (10449-1-AP, Proteintech, 1:1000) and Ppp1r15b (14634-1-AP, Proteintech, 1:1000). Proteins were visualized using ECL Prime (GE Healthcare).

MEFs = test: Translation rates by 35S-methionine labelling in r15a mut/mut or r15b mut/mut MEFs; format: cell-based, mouse
Experimental: HeLa cells were maintained in Dulbecco's Modified Eagle's Media (DMEM) supplemented with penicillin, streptomycin, glutamine and 10% fetal bovine serum (FBS). Ppp1r15a −/− and Ppp1r15b −/− MEF cells were maintained in DMEM supplemented with penicillin, streptomycin, glutamine, 55 μM β-mercaptoethanol, 1X non-essential amino acids (Sigma) and 10% FBS.
Cells (90,000 cells/ml) were plated in 12-well plates, treated as indicated, labelled with 100 μCi/ml ^35S-methionine (Hartmann Analytic) for 10 minutes at 37° C., washed with ice-cold PBS and lysed in 120 μl Laemmli Buffer. Lysates were boiled at 95° C. for 5 minutes, sonicated and resolved on 4-12% Bolt Bis-Tris Plus Gels (Thermo Fisher Scientific). Gels were then stained with InstantBlue (Expedeon) and analyzed by phosphorimaging.

PPP1R15A [3] = test: Induction of PPP1R15A expression in cells (immunoblot); format: cell-based, human; conditions: absence of stress
Experimental: For immunoblots, HeLa cells (80,000 cells/ml) were plated in 12-well plates 24 hours before each experiment. Immediately after the indicated treatments, cells were lysed in 75 μl Laemmli Buffer, boiled at 95° C. for 5 minutes and sonicated. Proteins were separated and analysed as described (Tsaytler et al., Science, 332, 91-94, 2011) with the following antibodies: phospho-elf2α [pS52] and PPP1R15A/GADD34 (10449-1-AP; ProteinTech Group, 1/1000 dilution).
as §1

[H]/N=C(\N)NN=Cc1cccc(Cl)c1Cl [Example 1, (E)-2-(2,3-dichlorobenzylidene)hydrazine-1-carboximidamide]
eIF2α phosphorylation following stress (eIF2α phosphorylation): prolongs eIF2α phosphorylation
protection of cells from tunicamycin stress (cell viability) (HeLa cells): protects cells from cytotoxic ER stress
myelination (length of myelin internodes) [1]: improved myelination; also recorded: increased the length of myelin internodes
induction of PPP1R15A mRNA in brain (PPP1R15A [2]): induced PPP1R15A; also recorded: induction of R15A
expression of ATF4 in cells (ATF4): induced expression
translation attenuation upon inactivation of R15A (MEFs): rendered persistent
expression of PPP1R15A (R15A) in cells (PPP1R15A [3]): induce PPP1R15A; also recorded: induces expression of R15A
expression of PPP1R15A (R15A) in cells (PPP1R15A [3]; listed as TST3): induced expression
